We go through 16 molecules from US5089516A, “1-phenyl-3,5-pyrazolidinedione hydroxystyrene compounds which have tyrosine kinase inhibiting activity” (Kanegafuchi Kagaku Kogyo Kabushiki Kaisha, priority 1987, dated 1992).

The test system of experiment [1] is antigen-induced airway constriction. The experiment in a line: Inhibitory activity against antigen-induced airway constriction in actively sensitized guinea pigs. It is filed as in vivo. The note with it: Cavia porcellus, read-out: Inhibition rate (airway constriction). The method, then: (3) Inhibitory activity against antigen-induced airway constriction in actively sensitized guinea pigs
That is, the sensitized guinea pigs (5 guinea pigs/group) were provided with artificial respiration by inserting a tracheal cannula under urethane anesthesia (1.5 g/kg body weight, intraperitoneal administration), and then, gallamine at 1 mg/kg body weight was injected intravenously to stop spontaneous respiration of the guinea pigs. Inhalation of 0.5% aqueous solution of ovalbumin was conducted using a nebulizer for 1 minute to increase antigen-induced airway constriction, at the same time, airway pressure was recorded through a transducer. Test compound was administered into jugular vein (i.v.) of the guinea pig 3 minutes before the antigen inhalation or administered orally (p.o.) 2 hours before the antigen inhalation. As a positive control compound, theophylline which was a drug for anti-asthma was used. The effect of the compound was estimated by calculating the maximum value of airway constriction (%) in comparison with the control group, according to the following equation. [formula]

In experiment [2] the target is T1, reverse transcriptase derived from Moloney-Murine Leukemia Virus (M-MLV) (Moloney murine leukemia virus, UniProt P03355).
T1 construct: reverse transcriptase derived from Moloney-Murine Leukemia Virus; purchased Pharmacia K. K
In words: Inhibiting activity against reverse transcriptase derived from M-MLV. Format: biochemical. The conditions noted are these: read-out: Inhibition rate (reverse transcriptase derived from M-MLV); for inhibition at 10 µM: 10 μM in the reaction mixture; for inhibition at 1 µM: 1 μM in the reaction mixture. As for the experimental part: There was found the following point by using reverse transcriptase derived from Moloney-Murine Leukemia Virus (hereinafter referred to as "M-MLV").
The compound of the present invention was dissolved in DMSO to give a 100 mM solution thereof. Then, the solution was diluted with distilled water containing DMSO to give a solution of the test compound having a defined concentration. A mixed ratio of DMSO and distilled water was adjusted so that the concentration of DMSO at this time is 10% by volume and a final concentration of DMSO at the beginning of a reaction is 1% by volume.
The thus prepared solution of the test compound was mixed with a solution containing 50 mM of Tris--HCl buffer (pH 8.3), 8 mM of MgCl2, 30 mM of NaCl, 50 mM of dithiothreitol (made by Wako Pure Chemical Industries Ltd.), 0.2 mM of thymidine-5'-triphosphate (made by Pharmacia K. K.) and 6 U/ml of reverse transciptase derived from M-MLV (made by Pharmacia K. K.), and preincubated at 37° C. for 30 minutes. After there was added thereto 10 μg/ml of polyadenylic acid (made by PL Biochemicals Co., Ltd.), 0.01 U/ml of oligodeoxy thymidylic acid (made by Pharmacia K. K.) and 10 μCi/ml of [methyl-^3 H] thymidine-5'-triphosphate (made by Amersham Japan Co., Ltd., 47 Ci/mmol) to give a reaction mixture, the mixture was further incubated at 37° C. for 30 minutes, followed by cooling with ice to stop the reaction.
The radioactivity incorporated into deoxyribonucleic acids was measured according to the method of Linteril et al (Science 170, 447 to 449 (1967)). A defined volume of the reaction mixture was soaked into DE-81 filter paper (made by Whatman Ltd.), the filter paper was washed with 5% by weight of Na2 HPO4 solution for three times, and with distilled water and ethanol successively, and then dried. Radioactivity contained in the filter paper was measured by liquid scintillation counter to give the each radioactivity of the test solution groups.
On the other hand, the same procedure as above was carried out using DMSO-distilled water without the test compound instead of using the test solution, to give the value of radioactivity of a control group.
Reverse transcriptase derived from M-MLV inhibition rate (%) was calculated by the following equation. [formula]

The subject of experiment [3] is passive cutaneous anaphylaxis (PCA) reaction. In words: Inhibitory activity against homologous PCA reaction in rats. It is filed as in vivo, male Wistar rats. The note with it: Rattus norvegicus, 100 mg/kg, oral, 1 hour before antigen, read-out: Inhibition rate (PCA reaction). As for the experimental part: (1) Inhibitory activity against homologous PCA reaction in rats
Antiserum was prepared according to I. Mota [Immunology, 7, 681(1964)]and the PCA reaction was conducted according to Maruyama et al. [Folia Pharmacologica Japonica, 74, 179(1978}].
An ovalbumin solution dissolved in physiological saline (2 mg/ml) was injected intramuscularly into both thighs of male Wistar rats weighing 200 to 260 g in a volume of 0.5 ml/100 g body weight, and pertussis vaccine (Bordetella pertussis, 2×10^10 /ml/ Chiba Serum Institute) was intraperitoneally administered at 1 ml/rat. Twelve days after sensitization, blood was taken from posterior aorta under ether anesthesia and serum was separated and stored at -80° C.
In each group, 4 male Wistar rats weighing 180 to 210 g were used. Back of the rats was shaved and reach 0.05 ml of antiserum diluted 32 times with physiological saline was injected intradermally at four sites on the back. After 48 hours, 1 ml of a mixture of ovalbumin (2 mg/ml) as an antigen and Evans blue (10 mg/ml) in the volume ratio of 1 : 1, which was dissolved in physiological saline was injected intravenously into the tail. Thirty minutes later, the rats were bled to death under ether anesthesia and the back skin of the rats was removed. The blue-dyed area formed by pigment exudation was measured and an inhibition rate (%) was calculated as compared with control according to the following equation. [formula]
A test compound suspended in a 2.5 % aqueous solution of gum arabic containing 0.2 % Tween 80 was administered orally in a volume of 0.5 m:/100 g body weight 1 hour before the injection of antigen. To the control group, only the vehicle was administered. Tranilast which was a positive control compound was administered orally 30 minutes before the injection of antigen.

The test system of experiment [4] is Nycobacterium smegmatis ATCC 607. In words: Antibacterial activity (MIC) against acid-fast bacteria. The conditions noted are these: 37° C., 40 to 42 hours. It is filed as cell-based. As for the experimental part: As for acid-fast bacteria, after cultured in glycerol broth medium, there was prepared a bacterial suspension for inoculation containing about 10^6 of the bacteria per 1 ml of the medium. On the other hand, there were prepared some glycerol Czapek agar plating media with adding the test compounds, and thereto the bacterial suspension for inoculation was streaked.

Experiment [5] deals with Micrococcus luteus IFO 13867. The experiment in a line: Antibacterial activity (MIC) against Micrococcus luteus IFO 13867. It is filed as cell-based. The note with it: IFO13867, 37° C., 18 to 20 hours. The method, then: (§1) The antibacterial activity against Gram-positive bacteria of the compound of the present invention was measured according to a standard method of Nippon Kagaku Ryoho Gakkai [Nippon Kagaku Ryoho Gakkaishi (Journal of the Chemical therapy of Japan), 29, 76(1981)].
(§2) As for gram-positive bacteria, after cultivation in Meuller Hinton broth medium (made by Difco Co., Ltd.), there was prepared a bacterial suspension for inoculation containing about 10^6 of the bacteria per 1 ml of the Meuller Hinton broth medium. On the other hand, the test compound was added to Mueller Hinton agar medium (made by Difco Co., Ltd.) so as to give agar plate medium containing test samples which are twofold serial diluted. Then, the above-mentioned bacterial suspension for inoculation was streaked to each agar medium for about 2 cm with a looped nichrome wire (inner diameter: about 1 mm).
(§3) After that the each agar plate medium was cultured at 37° C. for 18 to 20 hours, the growth of the test bacteria was determined.

Experiment [6] concerns Bacillus subtilis IFO 3134. In words: Antibacterial activity (MIC) against Bacillus subtilis IFO 3134. Format: cell-based. The conditions noted are these: IFO3134, 37° C., 18 to 20 hours. As for the experimental part: as §1, §2, §3
For experiment [7], the system named is Staphylococcus aureus IFO 12732. In words: Antibacterial activity (MIC) against Staphylococcus aureus IFO 12732. Format: cell-based. The note with it: IFO12732, 37° C., 18 to 20 hours. As for the experimental part:
as §1, §2, §3

[8] abbreviates: iv, 3 minutes before antigen inhalation.

In brackets after ≈: the same amount, converted by molar mass. Bounds are passed on as bounds.

By inhibition is commonly meant the percentage by which the read-out fell short of the control. Usually MIC stands for the least concentration at which growth counts as inhibited.

For the molecule `O=C1N=C(NCc2ccccc2)SC1=Cc1cc(Cc2ccccc2)c(O)c(Cc2ccccc2)c1` [Compound 26], the inhibition in vivo at 1 mg/kg in experiment [1] (setting [8]) stood at 68%. Also, the inhibition at 10 µM in experiment [2] is 76%.

Take `CC(C)c1cc(C=C2SC(NCc3ccc(Cl)c(Cl)c3)=NC2=O)cc(C(C)C)c1O` [Compound 37]: the inhibition in vivo at 100 mg/kg in experiment [3] came to 21%. Moreover, in experiment [1] (setting [8]), the inhibition in vivo at 1 mg/kg worked out at 21%.

`Cc1ccc(CNC2=NC(=O)C(=Cc3cc(C(C)C)c(O)c(C(C)C)c3)S2)cc1` [Compound 39]: the inhibition in vivo at 100 mg/kg in experiment [3] turned out to be 65%. Moreover, the inhibition in vivo at 1 mg/kg in experiment [1] (setting [8]) came to 59%.

In the case of `CC(C)c1cc(C=C2SC(NCc3ccccc3)=NC2=O)cc(C(C)C)c1O` [Compound 33], the inhibition in vivo at 100 mg/kg in experiment [3] turned out to be 50%. The inhibition in vivo at 2 mg/kg in experiment [1] (iv, 2 mg/kg, 3 minutes before antigen inhalation) was determined as 26%. In experiment [4], this molecule came in with an MIC of no more than 15 µg/mL.

In the case of `CC(C)c1cc(C=C2SC(NCc3ccc(F)cc3)=NC2=O)cc(C(C)C)c1O` [Compound 35], the inhibition in vivo at 100 mg/kg in experiment [3] stood at 43%. Also, in experiment [4], it took 15 µg/mL (≈ 36.4 µM) to inhibit growth (MIC).

Regarding `CCCCOc1cc(C=C2SC(=S)NC2=O)cc(CSc2ccccc2)c1O` [Compound 9], in experiment [1] (setting [8]), the inhibition in vivo at 1 mg/kg was found to be 20%. Further, in experiment [2], the inhibition at 1 µM worked out at 73%.

Regarding `O=C1NC(=S)SC1=Cc1cc(CSc2ccccc2)c(O)c(OCc2ccccc2)c1` [Compound 8], the inhibition in vivo at 1 mg/kg in experiment [1] (setting [8]) turned out to be 43%. Moreover, the inhibition at 1 µM in experiment [2] amounted to 98%.

Take `O=C1NN(c2ccccc2)C(=O)C1=Cc1cc(O)c(O)c(Cc2ccccc2)c1` [Compound 24]: the inhibition at 1 µM in experiment [2] was found to be 91%.

As to `O=C1NC(=S)SC1=Cc1cc(O)c(O)c(CSc2ccccc2)c1` [Compound 7], in experiment [1] (setting [8]), the inhibition in vivo at 1 mg/kg turned out to be 25%. The inhibition at 1 µM in experiment [2] turned out to be 98%.

Turning to `O=C1N=C(NCc2cccs2)SC1=Cc1cc(CSc2ccccc2)c(O)c(OCc2ccccc2)c1` [Compound 31], in experiment [4], the MIC was no more than 6 µg/mL. In addition, the inhibition at 10 µM in experiment [2] amounted to 61%.

As to `O=C1NC(=S)SC1=Cc1cc(Cc2ccccc2)c(O)c(Cc2ccccc2)c1` [Compound 2], the results for the MIC in experiment [5], in experiment [6] and in experiment [7] were no more than 6 µg/mL, no more than 6 µg/mL and 12 µg/mL (≈ 28.7 µM), respectively. Moreover, the inhibition at 1 µM in experiment [2] turned out to be 95%.

Regarding `CC(C)c1cc(C=C2SC(NCc3ccc(S(N)(=O)=O)cc3)=NC2=O)cc(C(C)C)c1O` [Compound 41], the inhibition in vivo at 100 mg/kg in experiment [3] was 25%. The MIC in experiment [6] is 25 µg/mL (≈ 52.8 µM); in experiment [7] it was 50 µg/mL (≈ 106 µM); in experiment [4] it was 25 µg/mL (≈ 52.8 µM).

Turning to `CCCCOc1cc(C=C2SC(=S)NC2=O)cc(Cc2ccccc2)c1O` [Compound 10], the inhibition at 10 µM in experiment [2] turned out to be 61%.

With `O=C1NN(c2ccccc2)C(=O)C1=Cc1cc(Cc2ccccc2)c(O)c(Cc2ccccc2)c1` [Compound 20], the MIC in experiment [5] was no more than 50 µg/mL; in experiment [6], 50 µg/mL (≈ 109 µM); in experiment [7], 100 µg/mL (≈ 217 µM). Besides, the inhibition at 10 µM in experiment [2] turned out to be 97%.

Take `CC(C)c1cc(C=C2SC(NCc3ccc(N)cc3)=NC2=O)cc(C(C)C)c1O` [Compound 42]: the inhibition in vivo at 5 mg/kg in experiment [1] (iv, 5 mg/kg, 3 minutes before antigen inhalation) came out at 33%. Besides, the MIC in experiment [4] was no more than 15 µg/mL. The inhibition at 10 µM in experiment [2] was 50%.

Take `O=C1Nc2ccccc2C1=Cc1cc(O)c(O)c(CSc2ccccc2)c1` [Compound 11]: in experiment [1] (setting [8]), the inhibition in vivo at 1 mg/kg was 52%. Moreover, the inhibition in vivo at 30 mg/kg in experiment [1] (po, 30 mg/kg, 2 hours before antigen inhalation) came to 26%. Also, the MIC in experiment [5] was 12 µg/mL (≈ 32 µM); in experiment [6], no more than 6 µg/mL; in experiment [7], 25 µg/mL (≈ 66.6 µM). For the same molecule, in experiment [2], the inhibition at 1 µM amounted to 94%.
